Data reported in patent publication US7635701B2 (Glaxo Group Limited, priority 2002, dated 2009).

What was measured:
[1] = biological target: human cannabinoid CB2 receptor (Homo sapiens, UniProt P34972); experiment: Cannabinoid CB2 receptor agonist activity in yeast cells (FDGlu fluorescence)
[2] = Particle size analysis on Lecotrac laser particle size analyser, pre and post nanomilling; assay type: physicochemical; settings: for Post-nanomilling 50% percentile particle size / Post-nanomilling 95% percentile particle size: after wet milling in aqueous 1.5% HPMC with YTZ beads; for Pre-nanomilling 50% percentile particle size / Pre-nanomilling 95% percentile particle size: starting material before nanomilling
Protocol: The particle size of the solid particles of compound (1) may be determined by laser diffraction. A suitable machine for determining particle size by laser diffraction is a Lecotrac laser particle size analyser, using an HELOS optical bench fitted with a QUIXEL dispersion unit.
2.5 g of compound of example 176 was weighed into a […] centrifuge tube. 25 ml of 0.3 mm yttrium zirconium (YTZ) ceramic milling beads (Manufacturer: Tosoh, Japan; Supplier: Glen Creston Ltd., batch no. 5280130030)”) was weighed into a 50 ml milling pot. 22.5 ml of aqueous 1.5% HPMC was measured with a measuring cylinder into a 100 ml beaker. This solution was homogenised for 3 seconds with an Ultra Turrax T25 homogeniser. Approximately 200 mg of the 2.5 g of the compound was added to the HPMC solution and homogenised at the lowest speed setting until the powder was wetted. This was repeated until all the compound had been added. The speed of the homogeniser was then increased to maximum and the suspension was homogenised for a further 3 minutes. This suspension was allowed to stand for 30 minutes in order to allow some of the foam to disperse. The suspension was then poured into the 50 ml pot containing the YTZ milling beads, stirring to release any trapped air. The lid to the pot was then fitted and the pot sealed with some Nesco film. This procedure was repeated for a second 50 ml nanomilling pot and both pots were placed on a Retsch mill and milled for a total of 8 hours.
The milling pots were removed from the Retsch mill and left to cool and for the foam to disperse overnight. In the morning the suspension and bead mixture was passed through a 200μ, 40 mm diameter screen. The contents from each 50 ml pot was washed with aqueous 1.5% HPMC: 10% of the original suspension volume (i.e. 2.5 ml). The suspension from the 2 pots was combined to make 1 batch. The suspension obtained from the method above was named the concentrate.
A particle size analysis was carried out on the Lecotrac laser particle size analyser. The results are shown in Table B along with the results from the starting material for comparison:
Compounds of Examples 19, 34, 194, 217, 228, 247 were nanomilled on a 1 g scale using the process described above and the particle size analysed pre and post nanomilling.

human cannabinoid CB2 receptor, sequence (P34972 whole entry): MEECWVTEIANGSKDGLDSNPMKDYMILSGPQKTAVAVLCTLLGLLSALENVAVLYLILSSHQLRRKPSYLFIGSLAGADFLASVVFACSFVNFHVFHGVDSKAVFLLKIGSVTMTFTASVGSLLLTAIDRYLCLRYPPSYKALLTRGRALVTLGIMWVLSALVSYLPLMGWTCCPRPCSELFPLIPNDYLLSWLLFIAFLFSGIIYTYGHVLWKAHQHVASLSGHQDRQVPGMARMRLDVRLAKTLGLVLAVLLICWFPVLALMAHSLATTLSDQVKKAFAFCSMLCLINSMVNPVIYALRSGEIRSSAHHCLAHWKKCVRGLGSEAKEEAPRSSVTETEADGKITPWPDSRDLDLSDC

Row | SMILES | EC50 [1] [nM] | Post-nanomilling 50% percentile particle size [2] [μ] | Post-nanomilling 95% percentile particle size [2] [μ] | Pre-nanomilling 50% percentile particle size [2] [μ] | Pre-nanomilling 95% percentile particle size [2] [μ]
1 | N#Cc1ccc(Nc2ncc(C(=O)NCC3CCC3)c(C(F)(F)F)n2)cc1Cl [Example 197] | 20 to 300 | – | – | – | –
2 | N#Cc1ccc(Nc2ncc(C(=O)NCC3CCCC3)c(C(F)(F)F)n2)cc1 [Example 176, 2-(4-Cyanophenylamino)-4-trifluoromethyl-pyrimidine-5-carboxylic acid cyclopentylmethyl-amide] | – | 0.33 | 1.78 | 13.15 | 68.7
3 | O=C(NC1CCSCC1)c1cnc(Nc2cccc(Cl)c2Cl)nc1C(F)(F)F [Example 81, 2-(2,3-Diclorophenylamino)-4-trifluoromethyl-pyrimidine-5-carboxylic acid (tetrahydro-thiopyran-4-yl)-amide] | 300 to 1000 | – | – | – | –
4 | N#Cc1ccc(Nc2ncc(C(=O)NCC3CCOCC3)c(C(F)(F)F)n2)cc1Cl [Ex 217, 2-(4-Cyano-3-chloro-phenylamino)-4-trifluoromethyl-pyrimidine-5-carboxylic acid (tetrahydro-pyran-4-ylmethyl)-amide] | – | 0.34 | 1.30 | 5.70 | 34.9
5 | O=C(c1cnc(Nc2cccc(Br)c2)nc1C(F)(F)F)N1CCCCC1 [Example 12] | 20 to 300 | – | – | – | –
6 | O=C(NCC1CCCCC1)c1cnc(Nc2cccc(F)c2)nc1C(F)(F)F [Example 19, 2-(3-Fluorophenylamino)-4-trifluoromethylpyrimidine-5-arboxylic acid cyclohexylmethyl-amide] | – | 0.40 | 1.40 | 5.22 | 25.5
7 | O=C(NCC1(O)CCCCC1)c1cnc(Nc2cccc(F)c2)nc1C(F)(F)F [Example 86, 2-(3-Fluoropheny1-amino)4-trifluoro-methyl-pyrimidine-5-carboxylic acid(1-hydroxy-cyclohexyl-methyl)amide] | 300 to 1000 | – | – | – | –
8 | O=C(NCC1CCCC1)c1cnc(Nc2ccc(F)c(Cl)c2)nc1C(F)(F)F [Ex 247, 2-(3-Chloro-4-fluoro-phenylamino)-4-trifluoromethyl-pyrimidine-5-carboxylic acid cyclopentylmethyl-amide] | – | 0.64 | 2.53 | 13.2 | 68.7
9 | O=C(NCC1CCCO1)c1cnc(Nc2cccc(F)c2)nc1C(F)(F)F (stereo in doubt) [Example 73, 2-(3-Fluoro-phenylamino)-4-trifluoromethyl-pyrimidine-5-carboxylic acid [(R)-1-(tetrahydro-furan-2-yl)methyl]-amide] | 300 to 1000 | – | – | – | –
10 | O=C(NCC1CCCCC1)c1cnc(Nc2ccccc2)nc1C(F)(F)F [Example 5] | 20 to 300 | – | – | – | –
11 | CC(C)CNC(=O)c1cnc(Nc2cccc(Cl)c2)nc1C(F)(F)F [Example 210] | 20 to 300 | – | – | – | –
